Patent publication US20120122860A1, “SOLID FORMS OF SULFONAMIDES AND AMINO ACIDS” (Plexxikon, Inc., priority 2009, published 2012)

Columns and labels:
[1] = target: B-Raf (Homo sapiens, UniProt P15056); assay: Kinase activity assay, B-Raf; format: biochemical; conditions: read-out: activity toward kinase B-Raf, IC50
[2] = target: B-Raf V600E (Homo sapiens, UniProt P15056, V600E); assay: Kinase activity assay, B-Raf V600E; format: biochemical; conditions: read-out: activity toward kinase B-Raf V600E, IC50
Chain of B-Raf V600E (P15056 whole entry V600E): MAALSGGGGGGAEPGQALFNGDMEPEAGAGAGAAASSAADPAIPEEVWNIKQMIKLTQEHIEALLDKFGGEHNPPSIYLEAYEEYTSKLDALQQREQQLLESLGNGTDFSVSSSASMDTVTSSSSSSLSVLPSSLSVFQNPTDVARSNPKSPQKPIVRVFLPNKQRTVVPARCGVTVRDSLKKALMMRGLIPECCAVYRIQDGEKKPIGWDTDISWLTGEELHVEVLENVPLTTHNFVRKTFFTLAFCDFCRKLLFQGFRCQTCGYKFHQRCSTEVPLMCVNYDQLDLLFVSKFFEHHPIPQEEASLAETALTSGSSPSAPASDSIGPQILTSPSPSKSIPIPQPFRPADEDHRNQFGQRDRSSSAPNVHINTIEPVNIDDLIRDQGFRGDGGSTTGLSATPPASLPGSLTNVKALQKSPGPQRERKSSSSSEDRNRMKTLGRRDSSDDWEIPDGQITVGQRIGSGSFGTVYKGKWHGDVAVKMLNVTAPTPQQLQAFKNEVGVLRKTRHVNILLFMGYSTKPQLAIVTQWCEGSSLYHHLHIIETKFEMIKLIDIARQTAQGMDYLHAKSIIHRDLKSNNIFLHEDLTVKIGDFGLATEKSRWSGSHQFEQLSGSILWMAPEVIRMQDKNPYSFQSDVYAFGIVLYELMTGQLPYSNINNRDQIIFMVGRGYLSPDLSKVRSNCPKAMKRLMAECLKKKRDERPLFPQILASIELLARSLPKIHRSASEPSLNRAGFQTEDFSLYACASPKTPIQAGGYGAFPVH

[3] = target: Fms (Homo sapiens, UniProt P07333); assay: Kinase activity assay, Fms
Chain of Fms (P07333 20-972): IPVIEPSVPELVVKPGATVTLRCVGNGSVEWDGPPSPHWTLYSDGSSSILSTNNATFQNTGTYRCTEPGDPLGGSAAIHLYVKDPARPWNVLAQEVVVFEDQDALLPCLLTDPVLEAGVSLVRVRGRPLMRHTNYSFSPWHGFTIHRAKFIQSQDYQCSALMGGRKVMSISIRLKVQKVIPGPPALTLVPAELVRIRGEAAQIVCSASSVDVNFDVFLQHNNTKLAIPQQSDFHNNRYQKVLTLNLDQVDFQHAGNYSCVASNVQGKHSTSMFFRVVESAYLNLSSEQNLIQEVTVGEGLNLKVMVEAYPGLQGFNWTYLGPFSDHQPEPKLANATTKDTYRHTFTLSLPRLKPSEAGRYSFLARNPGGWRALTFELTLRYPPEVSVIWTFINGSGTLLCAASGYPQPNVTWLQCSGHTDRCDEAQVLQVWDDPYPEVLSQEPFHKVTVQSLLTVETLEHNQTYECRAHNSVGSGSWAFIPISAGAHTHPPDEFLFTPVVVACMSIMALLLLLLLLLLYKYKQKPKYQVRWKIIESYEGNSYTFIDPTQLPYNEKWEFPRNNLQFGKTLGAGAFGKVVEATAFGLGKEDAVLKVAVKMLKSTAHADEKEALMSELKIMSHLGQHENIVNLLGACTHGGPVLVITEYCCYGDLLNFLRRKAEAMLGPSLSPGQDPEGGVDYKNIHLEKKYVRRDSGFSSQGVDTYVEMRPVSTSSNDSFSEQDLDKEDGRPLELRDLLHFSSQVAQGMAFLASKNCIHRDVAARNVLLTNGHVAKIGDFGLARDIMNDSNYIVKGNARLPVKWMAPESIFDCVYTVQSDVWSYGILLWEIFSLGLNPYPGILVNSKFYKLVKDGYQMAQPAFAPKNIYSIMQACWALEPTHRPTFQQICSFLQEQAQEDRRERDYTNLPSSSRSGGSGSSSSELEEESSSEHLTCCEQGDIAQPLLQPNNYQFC

[4] = target: Kdr (Homo sapiens, UniProt P35968); assay: Kinase activity assay, Kdr
[5] = target: Kit (Homo sapiens, UniProt P10721); assay: Kinase activity assay, Kit
Chain of Kit (P10721 26-976): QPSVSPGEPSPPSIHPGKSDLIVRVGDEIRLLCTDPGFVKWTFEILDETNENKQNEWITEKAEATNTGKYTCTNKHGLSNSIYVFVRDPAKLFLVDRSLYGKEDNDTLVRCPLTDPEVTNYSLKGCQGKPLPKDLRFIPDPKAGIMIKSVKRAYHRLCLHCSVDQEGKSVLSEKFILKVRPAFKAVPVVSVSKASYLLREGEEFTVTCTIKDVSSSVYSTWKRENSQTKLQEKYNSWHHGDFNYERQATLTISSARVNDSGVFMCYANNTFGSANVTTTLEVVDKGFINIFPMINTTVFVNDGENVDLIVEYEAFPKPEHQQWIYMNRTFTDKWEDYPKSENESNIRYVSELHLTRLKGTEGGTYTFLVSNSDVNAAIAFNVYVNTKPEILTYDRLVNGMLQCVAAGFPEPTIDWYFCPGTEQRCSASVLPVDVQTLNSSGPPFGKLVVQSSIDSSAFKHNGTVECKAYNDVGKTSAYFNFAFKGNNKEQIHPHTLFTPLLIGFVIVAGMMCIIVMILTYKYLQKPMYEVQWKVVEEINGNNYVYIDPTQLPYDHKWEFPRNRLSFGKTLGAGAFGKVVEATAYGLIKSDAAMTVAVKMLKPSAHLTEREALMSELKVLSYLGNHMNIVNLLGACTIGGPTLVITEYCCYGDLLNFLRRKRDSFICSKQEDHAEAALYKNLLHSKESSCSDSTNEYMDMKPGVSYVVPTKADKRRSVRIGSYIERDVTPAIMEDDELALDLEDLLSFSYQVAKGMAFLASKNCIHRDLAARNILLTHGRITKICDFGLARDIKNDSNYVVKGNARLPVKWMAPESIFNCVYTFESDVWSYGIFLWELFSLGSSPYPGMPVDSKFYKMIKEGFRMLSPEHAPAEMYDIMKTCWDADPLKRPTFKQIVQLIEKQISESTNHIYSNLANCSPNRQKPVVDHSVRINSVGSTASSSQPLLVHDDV

[6] = target: Src (Homo sapiens, UniProt P12931); assay: Kinase activity assay, Src
Chain of Src (P12931 whole entry): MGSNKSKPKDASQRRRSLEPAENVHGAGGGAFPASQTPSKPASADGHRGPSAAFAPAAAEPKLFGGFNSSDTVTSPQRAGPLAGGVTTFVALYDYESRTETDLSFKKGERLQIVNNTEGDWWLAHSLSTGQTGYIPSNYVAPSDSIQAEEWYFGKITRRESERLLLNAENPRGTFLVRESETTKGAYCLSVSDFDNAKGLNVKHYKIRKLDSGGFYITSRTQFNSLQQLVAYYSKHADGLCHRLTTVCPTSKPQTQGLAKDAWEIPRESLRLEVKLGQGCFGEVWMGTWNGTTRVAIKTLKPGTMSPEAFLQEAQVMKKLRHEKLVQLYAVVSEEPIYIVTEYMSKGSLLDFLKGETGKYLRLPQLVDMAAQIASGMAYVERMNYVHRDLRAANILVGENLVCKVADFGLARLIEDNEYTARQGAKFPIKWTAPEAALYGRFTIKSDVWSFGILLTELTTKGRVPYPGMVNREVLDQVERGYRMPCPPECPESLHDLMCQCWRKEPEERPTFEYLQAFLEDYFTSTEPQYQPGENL

[7] = target: T1, A-Raf (Homo sapiens, UniProt P10398); assay: Kinase activity assay, A-Raf
T1 sequence (P10398 1-606): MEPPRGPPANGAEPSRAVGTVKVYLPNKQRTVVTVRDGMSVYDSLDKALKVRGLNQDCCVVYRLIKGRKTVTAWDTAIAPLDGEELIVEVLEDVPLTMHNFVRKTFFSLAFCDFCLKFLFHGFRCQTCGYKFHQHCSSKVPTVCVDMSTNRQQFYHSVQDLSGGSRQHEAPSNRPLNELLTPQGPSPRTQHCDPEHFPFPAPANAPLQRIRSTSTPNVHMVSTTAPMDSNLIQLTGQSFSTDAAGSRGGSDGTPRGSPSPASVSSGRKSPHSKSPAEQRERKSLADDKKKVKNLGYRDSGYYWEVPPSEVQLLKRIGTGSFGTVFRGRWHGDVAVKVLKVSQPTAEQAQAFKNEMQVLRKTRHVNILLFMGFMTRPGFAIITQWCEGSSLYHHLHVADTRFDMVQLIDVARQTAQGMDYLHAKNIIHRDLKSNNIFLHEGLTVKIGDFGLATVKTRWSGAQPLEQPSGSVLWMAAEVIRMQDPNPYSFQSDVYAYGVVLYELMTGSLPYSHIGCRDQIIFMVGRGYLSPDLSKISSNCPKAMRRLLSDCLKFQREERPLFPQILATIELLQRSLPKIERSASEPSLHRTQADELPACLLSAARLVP

[8] = target: C-Raf (Homo sapiens, UniProt P04049); assay: Kinase activity assay, C-Raf
Chain of C-Raf (P04049 whole entry): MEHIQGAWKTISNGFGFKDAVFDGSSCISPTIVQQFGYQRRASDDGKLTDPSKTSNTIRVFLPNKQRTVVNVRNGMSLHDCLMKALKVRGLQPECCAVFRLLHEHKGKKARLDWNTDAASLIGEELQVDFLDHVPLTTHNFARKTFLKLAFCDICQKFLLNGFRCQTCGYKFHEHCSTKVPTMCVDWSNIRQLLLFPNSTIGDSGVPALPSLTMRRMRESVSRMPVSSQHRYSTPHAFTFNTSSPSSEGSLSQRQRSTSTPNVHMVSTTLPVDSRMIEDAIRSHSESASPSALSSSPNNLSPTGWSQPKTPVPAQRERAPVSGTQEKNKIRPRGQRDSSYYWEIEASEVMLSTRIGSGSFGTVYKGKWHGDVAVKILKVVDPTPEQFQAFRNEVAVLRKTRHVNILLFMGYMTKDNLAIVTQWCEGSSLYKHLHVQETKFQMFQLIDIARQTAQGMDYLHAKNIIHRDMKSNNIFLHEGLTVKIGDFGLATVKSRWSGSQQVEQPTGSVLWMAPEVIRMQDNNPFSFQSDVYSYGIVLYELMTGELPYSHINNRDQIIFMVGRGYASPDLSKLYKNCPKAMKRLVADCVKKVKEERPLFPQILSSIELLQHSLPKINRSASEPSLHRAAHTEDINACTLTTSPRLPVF

Measured: IC50

Chain of B-Raf (P15056 whole entry): as the sequence (P15056 whole entry V600E) above, with E600V counted along it

COc1cnc2[nH]cc(C(=O)c3c(F)ccc(NS(=O)(=O)C(C)C)c3F)c2c1 [P-2273, Propane-2-sulfonic acid [2,4-difluoro-3-(5-methoxy-1H-pyrrolo[2,3-b]pyridine-3-carbonyl)-phenyl]-amide]
≤ 10 µM: all assays above

O=C(c1cc(NS(=O)(=O)c2ccc(Cl)cc2)ccc1F)c1c[nH]c2ncccc12 [P-2113, 4-Chloro-N-[4-fluoro-3-(1H-pyrrolo[2,3-b]pyridine-3-carbonyl)-phenyl]-benzenesulfonamide]
≤ 10 µM: [1] | [3] | [4] | [5] | [7]

CCCS(=O)(=O)Nc1ccc(F)c(C(=O)c2c[nH]c3ncc(C(=O)NOC)cc23)c1F [P-2238, 3-[2,6-Difluoro-3-(propane-1-sulfonylamino)-benzoyl]-1H-pyrrolo[2,3-b]pyridine-5-carboxylic acid methoxy-amide]
not listed: [3]
≤ 10 µM: all other assays above

O=C(c1c(F)ccc(NS(=O)(=O)N2CCOCC2)c1F)c1c[nH]c2ncc(Cl)cc12 [P-2390, Morpholine-4-sulfonic acid [3-(5-chloro-1H-pyrrolo[2,3-b]pyridine-3-carbonyl)-2,4-difluoro-phenyl]-amide]
not listed: [1] | [8]
≤ 10 µM: all other assays above

N#Cc1ccnc2[nH]cc(C(=O)c3c(F)ccc(NS(=O)(=O)c4c(F)cccc4F)c3F)c12 [P-2037, N-[3-(4-Cyano-1H-pyrrolo[2,3-b]pyridine-3-carbonyl)-2,4-difluoro-phenyl]-2,6-difluoro-benzenesulfonamide]
not listed: [3]
≤ 10 µM: all other assays above

N#Cc1ccnc2[nH]cc(C(=O)c3c(F)ccc(NS(=O)(=O)c4ccc(F)cc4F)c3F)c12 [P-2038, N-[3-(4-Cyano-1H-pyrrolo[2,3-b]pyridine-3-carbonyl)-2,4-difluoro-phenyl]-2,4-difluoro-benzenesulfonamide]
not listed: [3]
≤ 10 µM: all other assays above

CC(C)CS(=O)(=O)Nc1ccc(F)c(C(=O)c2c[nH]c3ncc(-c4ccc(Cl)cc4)cc23)c1F [P-2297, 2-Methyl-propane-1-sulfonic acid {3-[5-(4-chloro-phenyl)-1H-pyrrolo[2,3-b]pyridine-3-carbonyl]-2,4-difluoro-phenyl}-amide]
≤ 10 µM: [3] | [5] | [7] | [8]

CC(C)CS(=O)(=O)Nc1ccc(F)c(C(=O)c2c[nH]c3ncc(Cl)cc23)c1F [P-2304, 2-Methyl-propane-1-sulfonic acid [3-(5-chloro-1H-pyrrolo[2,3-b]pyridine-3-carbonyl)-2,4-difluoro-phenyl]-amide]
≤ 10 µM: all assays above

O=C(c1cc(NS(=O)(=O)c2cccc(OC(F)(F)F)c2)ccc1F)c1c[nH]c2ncccc12 [P-2117, N-[4-Fluoro-3-(1H-pyrrolo[2,3-b]pyridine-3-carbonyl)-phenyl]-3-trifluoromethoxy-benzenesulfonamide]
not listed: [2] | [6]
≤ 10 µM: all other assays above

COc1cnc2[nH]cc(C(=O)c3c(F)ccc(NS(=O)(=O)N4CCCC4)c3F)c2c1 [P-2374, Pyrrolidine-1-sulfonic acid [2,4-difluoro-3-(5-methoxy-1H-pyrrolo[2,3-b]pyridine-3-carbonyl)-phenyl]-amide]
not listed: [3]
≤ 10 µM: all other assays above

Cc1cnc2[nH]cc(C(=O)c3c(F)ccc(NS(=O)(=O)CC(C)C)c3F)c2c1 [P-2305, 2-Methyl-propane-1-sulfonic acid [2,4-difluoro-3-(5-methyl-1H-pyrrolo[2,3-b]pyridine-3-carbonyl)-phenyl]-amide]
not listed: [3]
≤ 10 µM: all other assays above

COc1cnc2[nH]cc(C(=O)c3c(F)ccc(NS(=O)(=O)CC(C)C)c3F)c2c1 [P-2303, 2-Methyl-propane-1-sulfonic acid [2,4-difluoro-3-(5-methoxy-1H-pyrrolo[2,3-b]pyridine-3-carbonyl)-phenyl]-amide]
not listed: [3]
≤ 10 µM: all other assays above

CCCS(=O)(=O)Nc1ccc(F)c(C(=O)c2c[nH]c3nccc(C#N)c23)c1F [P-2209, Propane-1-sulfonic acid [3-(4-cyano-1H-pyrrolo[2,3-b]pyridine-3-carbonyl)-2,4-difluoro-phenyl]-amide]
not listed: [3]
≤ 10 µM: all other assays above

O=C(c1cc(NS(=O)(=O)c2cccc(C(F)(F)F)c2)ccc1F)c1c[nH]c2ncccc12 [P-2115, N-[4-Fluoro-3-(1H-pyrrolo[2,3-b]pyridine-3-carbonyl)-phenyl]-3-trifluoromethyl-benzenesulfonamide]
≤ 10 µM: [3] | [4] | [5] | [7]

N#Cc1cnc2[nH]cc(C(=O)c3c(F)ccc(NS(=O)(=O)N4CCOCC4)c3F)c2c1 [P-2393, Morpholine-4-sulfonic acid [3-(5-cyano-1H-pyrrolo[2,3-b]pyridine-3-carbonyl)-2,4-difluoro-phenyl]-amide]
not listed: [3] | [4]
≤ 10 µM: all other assays above

O=C(c1cc(NS(=O)(=O)c2ccc(OC(F)(F)F)cc2)ccc1F)c1c[nH]c2ncccc12 [P-2116, N-[4-Fluoro-3-(1H-pyrrolo[2,3-b]pyridine-3-carbonyl)-phenyl]-4-trifluoromethoxy-benzenesulfonamide]
≤ 10 µM: [1] | [3] | [5] | [7] | [8]

CCCS(=O)(=O)Nc1ccc(F)c(C(=O)c2c[nH]c3ncccc23)c1 [P-2437, Propane-1-sulfonic acid [4-fluoro-3-(1H-pyrrolo[2,3-b]pyridine-3-carbonyl)-phenyl]-amide]
≤ 10 µM: [2] | [3] | [4] | [7]

O=C(c1c(F)ccc(NS(=O)(=O)N2CCCC2)c1F)c1c[nH]c2nccc(Cl)c12 [P-2398, Pyrrolidine-1-sulfonic acid [3-(4-chloro-1H-pyrrolo[2,3-b]pyridine-3-carbonyl)-2,4-difluoro-phenyl]-amide]
not listed: [3]
≤ 10 µM: all other assays above
